Converted amounts (≈) assume the structure as drawn.
Legend:
Klebsiella pneumoniae = assay: microbe, parasite or virus in culture; conditions: ATCC 700603, 18 h, ASSAY_TEST Inhibition of Bacterial Growth, detection method Absorption (OD600), MEDIA CAMHB, plate type 384well, NBS, CORNING #3640
Description: Antibacterial activity against Klebsiella pneumoniae MDR ATCC 70063 (CO-ADD:GN_003); MIC in CAMBH media using NBS plates, by OD(600)

Pseudomonas aeruginosa [1] = assay: Antibacterial activity against Pseudomonas aeruginosa PAO397 [PAO1 d(mexAB-oprM) d(mexCD-oprJ) d(mexEF-oprN) d(mexJKL) d(mexXY) d(opmH)] (CO-ADD:GN_211); MIC in CAMBH media using NBS plates, by OD(600); assay type: functional; conditions: ASSAY_TEST Inhibition of Bacterial Growth, detection method Absorption (OD600), MEDIA CAMHB, plate type 384well, CORNING #3640, time 18 hr
Escherichia coli = assay: microbe, parasite or virus in culture; conditions: ATCC 25922, 18 h, ASSAY_TEST Inhibition of Bacterial Growth, detection method Absorption (OD600), MEDIA CAMHB, plate type 384well, NBS, CORNING #3640
Description: Antibacterial activity against Escherichia coli ATCC 25922 (CO-ADD:GN_001); MIC in CAMBH media using NBS plates, by OD(600)

Candida albicans = assay: microbe, parasite or virus in culture; conditions: ATCC 90028, ASSAY_TEST Inhibition of Fungal Growth, detection method Absorption (OD530), plate type 384well, NBS, CORNING #3640
Description: Antifungal activity against Candida albicans ATCC 90028 (CO-ADD:FG_001); MIC in YNB media using NBS plates, by OD630

Staphylococcus aureus = assay: microbe, parasite or virus in culture; conditions: ATCC 43300, 18 h, ASSAY_TEST Inhibition of Bacterial Growth, detection method Absorption (OD600), MEDIA CAMHB, plate type 384well, NBS, CORNING #3640
Description: Antibacterial activity against Staphylococcus aureus MRSA ATCC 43300 (CO-ADD:GP_020); MIC in CAMBH media, using NBS plates, by OD(600)

Pseudomonas aeruginosa [2] = assay: microbe, parasite or virus in culture; conditions: ATCC 27853, 18 h, ASSAY_TEST Inhibition of Bacterial Growth, detection method Absorption (OD600), MEDIA CAMHB, plate type 384well, NBS, CORNING #3640
Description: Antibacterial activity against Pseudomonas aeruginosa ATCC 27853 (CO-ADD:GN_042); MIC in CAMBH media using NBS plates, by OD(600)

Acinetobacter baumannii = assay: microbe, parasite or virus in culture; conditions: ATCC 19606, 18 h, ASSAY_TEST Inhibition of Bacterial Growth, detection method Absorption (OD600), MEDIA CAMHB, plate type 384well, NBS, CORNING #3640
Description: Antibacterial activity against Acinetobacter baumannii ATCC 19606 (CO-ADD:GN_034); MIC in CAMBH media using NBS plates, by OD600

HEK293 = assay: cells; assay type: functional, Homo sapiens, ATCC CRL1573; conditions: Homo sapiens, ATCC CRL1573, HEK293; ASSAY_TEST Inhibition of Cell Viability; detection method Resazurin; Fluorescence (ex560/em590); MEDIA DMEM with 10% FBS; plate type 384well; TC; CORNING #3712; time 18 hr; read-out: CC50

Description for Cryptococcus neoformans: Antifungal activity against Cryptococcus neoformans H99 ATCC 208821 (CO-ADD:FG_002); MIC in YNB media using NBS plates, by Resazurin OD(600-570)

Row | MIC (Klebsiella pneumoniae) [µM] | MIC (Pseudomonas aeruginosa [1]) [µM] | MIC (Escherichia coli) [µM] | MIC (Cryptococcus neoformans) [µM] | MIC (Candida albicans) [µM] | MIC (Staphylococcus aureus) [µM] | MIC (Pseudomonas aeruginosa [2]) [µM] | MIC (Acinetobacter baumannii) [µM] | SMILES | CC50 (HEK293) [µM]
1 | > 20 | > 20 | > 20 | > 20 | > 20 | > 20 | > 20 | > 20 | Nc1nc(NC2Cc3ccc(F)cc3C2)nc(N2CCCCC2)n1 (stereo unspecified) | > 20
2 | > 20 | > 20 | > 20 | > 20 | > 20 | > 20 | > 20 | > 20 | O=C(Nc1nnc(-c2ccc(Cl)cc2)o1)c1nc2ccccc2s1 | > 20
3 | > 20 | > 20 | > 20 | > 20 | > 20 | > 20 | > 20 | > 20 | CC(C)Cn1c(=O)n(C)c(=O)c2c(-c3cncn3C)n(Cc3cccc4ccccc34)nc21 | > 20
4 | > 20 | > 20 | > 20 | > 20 | > 20 | > 20 | > 20 | > 20 | Cc1cccc(C)c1C(=O)Nc1nc(-c2ccccn2)cc2ccccc12 | 7.29
5 | > 20 | > 20 | > 20 | > 20 | > 20 | > 20 | > 20 | > 20 | O=C(O)c1sccc1S(=O)(=O)n1ccc2cc(Br)ccc21 | > 20
6 | > 20 | > 20 | > 20 | > 20 | > 20 | > 20 | > 20 | > 20 | Oc1ccc2[nH]c(-c3ccccc3)nc2c1 | > 20
7 | > 20 | 20 (≈ 7.61 µg/mL) | > 20 | > 20 | > 20 | > 20 | > 20 | > 20 | Cc1nc2ccc(Oc3ccccc3)cc2c2c1CCN2CCc1ccccc1 | 14.4
8 | > 20 | > 20 | > 20 | > 20 | > 20 | > 20 | > 20 | > 20 | Nc1nc(-c2ccccc2)nc2c1ncn2[C@@H]1O[C@H](COS(=O)(=O)NC(=O)c2ccccc2O)[C@@H](O)[C@H]1O | > 20
9 | 10 (≈ 2.86 µg/mL) | 10 (≈ 2.86 µg/mL) | 2.5 (≈ 0.716 µg/mL) | > 20 | > 20 | 2.5 (≈ 0.716 µg/mL) | > 20 | > 20 | C=CCc1cc(Cc2cnc(N)nc2N)cc(OC)c1O | > 20

Second part, the molecule before the results:

Row | SMILES | MIC (Klebsiella pneumoniae) [µM] | MIC (Pseudomonas aeruginosa [1]) [µM] | MIC (Escherichia coli) [µM] | MIC (Cryptococcus neoformans) [µM] | MIC (Candida albicans) [µM] | MIC (Staphylococcus aureus) [µM] | MIC (Pseudomonas aeruginosa [2]) [µM] | MIC (Acinetobacter baumannii) [µM] | CC50 (HEK293) [µM]
10 | Cc1ccc(S(=O)(=O)Nc2cccc3cccnc23)cc1 | > 20 | > 20 | > 20 | > 20 | > 20 | > 20 | > 20 | > 20 | 4.05
11 | Oc1c(C(Nc2ccccn2)c2ccccc2)ccc2cccnc12 (stereo unspecified) | > 20 | > 20 | > 20 | 20 (≈ 6.55 µg/mL) | 20 (≈ 6.55 µg/mL) | > 20 | > 20 | > 20 | 19.6
12 | COc1ccc(CNC(=O)C(NS(=O)(=O)c2ccc3nc(C)sc3c2)C(C)C)cc1 (stereo unspecified) | > 20 | > 20 | > 20 | > 20 | > 20 | > 20 | > 20 | > 20 | > 20
13 | O=[N+]([O-])c1cn(Cc2nc(O)nc(O)c2Br)cn1 | > 20 | > 20 | > 20 | > 20 | > 20 | > 20 | > 20 | > 20 | > 20
14 | Cc1ccn2c(C(=O)NCc3ccccc3)c(C)nc2c1 | > 20 | > 20 | > 20 | > 20 | > 20 | > 20 | > 20 | > 20 | > 20
15 | C[C@H](NC(CC(=O)c1ccccc1C(F)(F)F)C(=O)O)c1ccccc1 (stereo partly specified) | > 20 | > 20 | > 20 | > 20 | > 20 | > 20 | > 20 | > 20 | > 20
16 | Cc1c[nH]c(=O)nc1NCc1ccccc1 | > 20 | > 20 | > 20 | > 20 | > 20 | > 20 | > 20 | > 20 | > 20
17 | O=C(NC12CC3CC(CC(C3)C1)C2)c1cc2ccccc2[nH]1 | > 20 | > 20 | > 20 | > 20 | > 20 | > 20 | > 20 | > 20 | > 20
18 | CCCCCc1ccc(C(=O)NCCn2cc(CCCCCc3c[nH]c(N)n3)nn2)cc1 | > 20 | > 20 | > 20 | > 20 | > 20 | > 20 | > 20 | > 20 | > 20
19 | N#Cc1c(F)c(Cl)c(NCc2ccccc2)c(C#N)c1F | > 20 | > 20 | > 20 | > 20 | > 20 | 5 (≈ 1.52 µg/mL) | > 20 | > 20 | 5.16
20 | O=C(Nc1ccc(-c2ccccc2)cc1)C1=C(O)C(Cc2ccccc2)OC1=O (stereo unspecified) | > 20 | > 20 | > 20 | > 20 | > 20 | > 20 | > 20 | > 20 | > 20
21 | Cc1cc(O)c2c(c1)C(=O)c1c(I)c(O)c(I)c(O)c1C2=O | > 20 | > 20 | > 20 | > 20 | > 20 | 20 (≈ 10.4 µg/mL) | > 20 | > 20 | > 20
22 | CC(=O)Nc1cc(NS(=O)(=O)c2ccc(Cl)cc2)cc2c(Cl)[nH]nc12 | > 20 | > 20 | > 20 | > 20 | > 20 | > 20 | > 20 | > 20 | > 20
23 | CCc1ccc(C2CC(C(F)(F)F)n3ncc(C(=O)NCc4ccc(OC)cc4)c3N2)cc1 (stereo unspecified) | > 20 | > 20 | > 20 | > 20 | > 20 | > 20 | > 20 | > 20 | > 20
24 | Cc1cccc(CC(=O)N[C@H]2CCOC2=O)c1 | > 20 | > 20 | > 20 | > 20 | > 20 | > 20 | > 20 | > 20 | > 20
25 | N=C(N)NCCCCC(=O)Nc1cc(C(F)(F)F)cc(NC(=O)c2cc(C(=O)Nc3cc(C(F)(F)F)cc(NC(=O)CCCCNC(=N)N)c3O[C@@H]3CCNC3)ncn2)c1O[C@@H]1CCNC1 | 2.5 (≈ 2.34 µg/mL) | 5 (≈ 4.68 µg/mL) | 1.25 (≈ 1.17 µg/mL) | 0.312 (≈ 0.293 µg/mL) | > 20 | ≤ 0.156 | 10 (≈ 9.37 µg/mL) | 5 (≈ 4.68 µg/mL) | > 20
26 | CCCCc1ccc(-c2cc(C(=O)O)cc(-c3ccc(Cl)cc3)n2)cc1 | > 20 | > 20 | > 20 | > 20 | > 20 | > 20 | > 20 | > 20 | > 20
27 | CCc1nc(N)nc(N)c1C#CCc1ccccc1 | > 20 | > 20 | > 20 | > 20 | > 20 | 20 (≈ 5.05 µg/mL) | > 20 | > 20 | > 20
28 | NC(=O)c1[nH]c2ccc(S(N)(=O)=O)cc2c1-c1ccccc1 | > 20 | > 20 | > 20 | > 20 | > 20 | > 20 | > 20 | > 20 | > 20
29 | CCc1cc(Cc2cnc(N)nc2N)cc2c1N(C)CCC2C (stereo unspecified) | > 20 | > 20 | > 20 | > 20 | > 20 | 10 (≈ 3.11 µg/mL) | > 20 | > 20 | > 20
